These results are taken from ChEMBL document CHEMBL3045482, “Synthesis, crystal structure, in vitro acetohydroxyacid synthase inhibition, in vivo herbicidal activity, and 3D-QSAR of new asymmetric aryl disulfides” (J Agric Food Chem, 2012).

Broadly, the Ki is the equilibrium dissociation constant of an inhibitor or competing ligand from its target.

The first assay relates to Brassica rapa subsp. oleifera. Put plainly: Herbicidal activity against Brassica rapa subsp. oleifera assessed as Brassica rapa subsp. oleifera root growth inhibition at 100 mg/L. The assay is classed as functional. Conditions: read-out: GI.
In the case of `COc1ccc(SSc2nc[nH]n2)cc1`, the inhibition of growth at 100 µg/mL was 44.6%.

`Cc1nc(SSc2ccccc2)n[nH]1`: the inhibition of growth at 100 µg/mL worked out at 69.4%. The same measure, in the same setting: the same measure for `Cc1ccc(SSc2n[nH]c(C)n2)cc1`: 62.5%; for `COC(=O)c1ccccc1SSc1n[nH]c(C)n1`: 10.6%; for `CCOC(=O)c1ccccc1SSc1n[nH]c(C)n1`: 26.6%. Same read-out and setting: to `Cc1nc(SSc2ccccc2[N+](=O)[O-])n[nH]1` belongs 59.6%; to `COc1ccc(SSc2n[nH]c(C)n2)cc1`, 28.3%; to `Cc1nc(SSc2ccc(Cl)cc2)n[nH]1`, 24.1%.

In the case of `Cc1nc(SSc2ccc(Br)cc2)n[nH]1`, the inhibition of growth at 100 µg/mL stood at 17.6%. With `Cc1nc(SSc2ccccc2F)n[nH]1`, the inhibition of growth at 100 µg/mL was determined as 13%. In the case of `Cc1nc(SSc2ccccc2C)n[nH]1`, the inhibition of growth at 100 µg/mL turned out to be 36.8%. On to `Cc1nc(SSc2ccc3ccccc3c2)n[nH]1`, for which the inhibition of growth at 100 µg/mL came out at 0%.

With `c1ccc(SSc2n[nH]c(-c3ccccc3)n2)cc1`, the inhibition of growth at 100 µg/mL turned out to be 81.7%. On the same count and under the same terms, the same measure for `Cc1ccc(SSc2n[nH]c(-c3ccccc3)n2)cc1`: 87.5%; for `COC(=O)c1ccccc1SSc1n[nH]c(-c2ccccc2)n1`: 52.8%; for `CCOC(=O)c1ccccc1SSc1n[nH]c(-c2ccccc2)n1`: 34.3%. The same measure, in the same setting: to `O=[N+]([O-])c1ccccc1SSc1n[nH]c(-c2ccccc2)n1` belongs 0%; to `COc1ccc(SSc2n[nH]c(-c3ccccc3)n2)cc1`, 29.4%; to `Clc1ccc(SSc2n[nH]c(-c3ccccc3)n2)cc1`, 37.5%.

In the case of `Cc1ccc(-c2nc(SSc3ccccc3)n[nH]2)cc1`, the inhibition of growth at 100 µg/mL is 54.1%. With `Cc1ccc(SSc2n[nH]c(-c3ccc(C)cc3)n2)cc1`, the inhibition of growth at 100 µg/mL amounted to 0%. Turning to `COC(=O)c1ccccc1SSc1n[nH]c(-c2ccc(C)cc2)n1`, the inhibition of growth at 100 µg/mL is 44.9%. As for `CCOC(=O)c1ccccc1SSc1n[nH]c(-c2ccc(C)cc2)n1`, the inhibition of growth at 100 µg/mL turned out to be 0%. The same measure, in the same setting: the same measure for `Cc1ccc(-c2nc(SSc3ccccc3[N+](=O)[O-])n[nH]2)cc1`: 0%; for `COc1ccc(SSc2n[nH]c(-c3ccc(C)cc3)n2)cc1`: 11%; for `Cc1ccc(-c2nc(SSc3ccc(Cl)cc3)n[nH]2)cc1`: 24.1%. On the same count and under the same terms, the same measure for `c1ccc(SSc2n[nH]c(-c3ccncc3)n2)cc1`: 70.2%; for `Cc1ccc(SSc2n[nH]c(-c3ccncc3)n2)cc1`: 6.9%. For `COC(=O)c1ccccc1SSc1n[nH]c(-c2ccncc2)n1`, the inhibition of growth at 100 µg/mL is 30.5%.

As for `CCOC(=O)c1ccccc1SSc1n[nH]c(-c2ccncc2)n1`, the inhibition of growth at 100 µg/mL turned out to be 0%. Same read-out and setting: the same measure for `O=[N+]([O-])c1ccccc1SSc1n[nH]c(-c2ccncc2)n1`: 0%; for `COc1ccc(SSc2n[nH]c(-c3ccncc3)n2)cc1`: 0%; for `Clc1ccc(SSc2n[nH]c(-c3ccncc3)n2)cc1`: 0%. On to `c1ccc(SSc2n[nH]c(-c3cccnc3)n2)cc1`, for which the inhibition of growth at 100 µg/mL was 66.2%. On the same count and under the same terms, to `Cc1ccc(SSc2n[nH]c(-c3cccnc3)n2)cc1` belongs 0%.

For the molecule `COC(=O)c1ccccc1SSc1n[nH]c(-c2cccnc2)n1`, the inhibition of growth at 100 µg/mL was found to be 0%. Consider `CCOC(=O)c1ccccc1SSc1n[nH]c(-c2cccnc2)n1`, for which the inhibition of growth at 100 µg/mL was determined as 0%.

As to `O=[N+]([O-])c1ccccc1SSc1n[nH]c(-c2cccnc2)n1`, the inhibition of growth at 100 µg/mL came out at 27.4%. Take `COc1ccc(SSc2n[nH]c(-c3cccnc3)n2)cc1`: the inhibition of growth at 100 µg/mL is 14.3%. Consider `Clc1ccc(SSc2n[nH]c(-c3cccnc3)n2)cc1`, for which the inhibition of growth at 100 µg/mL stood at 0%.

`c1ccc(SSc2nc[nH]n2)cc1`: the inhibition of growth at 100 µg/mL amounted to 86.6%. Still for that read-out and setting: the same measure for `Cc1ccc(SSc2nc[nH]n2)cc1`: 67.5%; for `COC(=O)c1ccccc1SSc1nc[nH]n1`: 54.8%. Same read-out and setting: the same measure for `CCOC(=O)c1ccccc1SSc1nc[nH]n1`: 21.1%; for `O=[N+]([O-])c1ccccc1SSc1nc[nH]n1`: 69.8%. In the case of `Clc1ccc(SSc2nc[nH]n2)cc1`, the inhibition of growth at 100 µg/mL is 50.2%. Same read-out and setting: the same measure for `Brc1ccc(SSc2nc[nH]n2)cc1`: 27.4%; for `Fc1ccccc1SSc1nc[nH]n1`: 47.2%.

For `Cc1ccccc1SSc1nc[nH]n1`, the inhibition of growth at 100 µg/mL came out at 43.6%.

Take `c1ccc2cc(SSc3nc[nH]n3)ccc2c1`: the inhibition of growth at 100 µg/mL is 16.3%.

On to `COC(=O)c1ccccc1S(=O)(=O)NC(=O)Nc1nccc(C)n1` [MONOSULFURON ESTER], for which the inhibition of growth at 100 µg/mL stood at 88.5%.

The target of a further assay is Acetolactate synthase, chloroplastic (Arabidopsis thaliana, UniProt P17597, W574L).
Conditions: not given
`Cc1nc(SSc2ccccc2[N+](=O)[O-])n[nH]1` registered a Ki of 27.1 µM. This lies in the double-digit micromolar range. The same measure, in the same setting: to `Cc1ccc(SSc2nc[nH]n2)cc1` belongs 25.7 µM. Still for that read-out and setting: to `CC(C)C1(C)N=C(c2nc3ccccc3cc2C(=O)O)NC1=O` (stereo not drawn) [IMAZAQUIN] belongs 470 µM; to `COC(=O)c1ccccc1S(=O)(=O)NC(=O)Nc1nccc(C)n1` [MONOSULFURON ESTER], 8.53 µM.

Another assay deals with T1, Acetolactate synthase, chloroplastic (Arabidopsis thaliana, UniProt P17597).
T1 sequence (P17597 whole entry): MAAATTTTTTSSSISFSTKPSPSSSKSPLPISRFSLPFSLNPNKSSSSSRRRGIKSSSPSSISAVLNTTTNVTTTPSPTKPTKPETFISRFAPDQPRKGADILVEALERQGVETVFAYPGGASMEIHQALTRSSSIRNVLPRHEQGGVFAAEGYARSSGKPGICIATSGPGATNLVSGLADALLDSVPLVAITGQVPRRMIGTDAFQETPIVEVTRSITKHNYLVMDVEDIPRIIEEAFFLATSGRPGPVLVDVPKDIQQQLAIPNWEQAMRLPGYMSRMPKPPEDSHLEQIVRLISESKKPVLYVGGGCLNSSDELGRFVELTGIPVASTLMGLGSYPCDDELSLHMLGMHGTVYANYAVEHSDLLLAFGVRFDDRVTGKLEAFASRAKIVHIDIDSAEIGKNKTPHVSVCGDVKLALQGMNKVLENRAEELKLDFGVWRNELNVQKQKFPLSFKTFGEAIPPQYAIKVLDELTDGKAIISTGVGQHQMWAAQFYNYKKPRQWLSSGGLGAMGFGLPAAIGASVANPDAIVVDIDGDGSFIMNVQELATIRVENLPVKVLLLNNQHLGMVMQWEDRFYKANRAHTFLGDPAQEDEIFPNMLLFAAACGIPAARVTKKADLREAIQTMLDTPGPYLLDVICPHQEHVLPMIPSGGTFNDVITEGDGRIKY
Conditions: not given
`Cc1nc(SSc2ccccc2[N+](=O)[O-])n[nH]1` displayed a Ki of 5.57 µM. That is a single-digit micromolar value.

In turn, `Cc1ccc(SSc2nc[nH]n2)cc1` had a Ki of 4.69 µM. Still for that read-out and setting: the same measure for `COC(=O)c1ccccc1S(=O)(=O)NC(=O)Nc1nccc(C)n1` [MONOSULFURON ESTER]: 0.26 µM.
